Patent US9095616B2, “Caged platinum nanoclusters for anticancer chemotherapeutics” (priority 2013, dated 2015)

Assays:
[1] = test system: subcutaneous breast cancer xenograft; assay: TUNEL assay of tumor tissue; format: in vivo, Balb/c nude mice; conditions: after treatment for 48 hours
From the text: Terminal dexoxynucleotidyl […]-mediated dUTP nick end labeling (TUNEL) assay was used for in situ detection of apoptotic cell death. The frozen sections of tumor tissue (4 μm thick) were warmed up to room temperature. The slides were washed 3 times with PBS to remove OCT (one of tumor's embedded medium for frozen tissues). The labeling procedures followed the standard protocol of this kit. These slides were stained with 3,3'-diaminobenzidne (DAB, Thermo, S21024-2), then counterstained with hematoxylin and mounted onto glass coverslisps before monitoring by light microscopy.

MDA-MB-231 cell line = assay: ROS assay using CM-H2DCFDA; format: cell-based, human; conditions: 3 h
Method: MDA-MB-231 cell line was cultured in RPMI 1640 medium (media were supplemented with 10% fetal bovine serum) under 5% CO2 atmosphere at 37° C. The cells were inoculated with 1×10^5 cells per well in a 6-well cell-culture plate and cultivated at 37° C. for 24 h. Then, the culture medium was changed with the presence of various treatments, including […] alone, the CPN, cisplatin, and 0.03% H2O2 in the culture medium. The tests were performed for 3 h without changing the medium. After removal of the supernatant of cell culture medium, the cells were isolated for ROS assay using CM-H2DCFDA from INVITROGENTM.

[2] = test system: subcutaneous breast cancer xenograft; assay: Tumor suppression after IT injection; format: in vivo, Balb/c nude mice; conditions: IT injection once a week for 3 weeks, vs PBS and G2NH2
Method: (§1) Seven-week-old female Balb/c nude mice (16-20 g) were kept on a 12-h light/12-h dark cycle at 24±2° C. and 50±10% relative humidity, with free access to water and food. They were subcutaneously injected with […] cells/mouse to establish a breast tumor model. Tumors were measured by a digital Vernier caliper across each tumor's longest (a) and shortest (b) diameter, and tumor volume (V) was calculated by the formula V=0.5a×b^2. When the tumor size reached approximately 60 mm^3 and 150 mm^3, CPN and DCPN were administered by IT and IV injection, respectively. The stud of comparative efficiency in tumor suppression was performed. The mice were treated with CPN via IT injections once a week for a total of 3 weeks. Similarity. DCPN was administered to mice via IV once a week for 4 weeks. The injection volume was 5 μL/g body weight and the tumor size was calculated every 2 to 3 days. After the mice were sacrificed, tumors and blood were collected and placed in EDTA glass tubes.

MDA-MB-231 = assay: MTT cytotoxicity; format: cell-based, human; conditions: MDA-MB-231, 3 d
Method: Cells of the MDA-MB-231 line (Bioresource Collection and Research Center, Taiwan) were cultured in RPMI 1640 medium supplemented with 10% fetal bovine serum under 5% CO2 atmosphere at 37° C. Twenty-four-well cell culture plates were inoculated with 1×10^5 cells/well and kept at 37° C. for 24 h. The culture medium was changed in the presence of various concentrations of different treatments ([…] alone, carboplatin, cisplatin, and CPN) in culture medium (three replicates). The tests were performed for 3 d without changing the medium. After the overlaying cell-culture medium was removed, the cells were incubated with 3-(4,5-dimethylthiazol-2-yl)-2,5-diphenyltetrazolium bromide (MTT, Sigma, Mo. USA) at 37° C. for 1 h. After treatment, the fomazan product from MTT was dissolved in DMSO and quantified using a conventional ELISA reader at 570 nm. For calibration, a blank test was performed in a 24-well plate under the same conditions.

[3] = test system: subcutaneous breast cancer xenograft; assay: Active caspase-3 immunohistochemistry of tumor tissue; format: in vivo, Balb/c nude mice
Method: The frozen sections of tumor tissue (4 μm thick) were warm up to room temperature washed 3 times with PBS (5 min/time), and fixed with freshly prepared 4% paraformaldehyde in PBS for 15 minutes. The fixed sections were immersed in a polyclonal rabbit anti-mouse active caspase-3 antibody (Abeam Inc., ab2302, 5 μg/mL in 10% BSA of PBS, 50 μL/sample) at 4° C. for overnight, followed by washing with PBS (three times, 15 min/time) and incubating with peroxidase-conjugated polyclonal goat anti-rabbit antibodies (Abeam Inc., ab6721-200, 1:500 (v/v) in PBS, 100 μL/sample) at room temperature for 2 hours. These slides were first stained with DAB, subsequently counterstained with hematoxylin, and mounted with glass coverslisps before monitoring by light microscopy.

[4] = Maximal tolerated dose (Table 1); format: in vivo; conditions: IV injection
Method: The therapeutic efficacy of CPN using subcutaneous breast cancer xenograft in mice was evaluated by intratumoral (IT) injection. The maximal tolerated dose (MTD) of various drugs, such as CPN and cisplatin, was described in Table 1. […] Thus, the programmed death pathway of CPN-treated cells might be similar to that of cisplatin-treated cells. We verified whether the CPN could be injected into blood vessels to exert tumor-inside activation for anticancer chemotherapeutics. Thus, the CPN was extra coated with a cleavable PEG layer to prevent protein adhesions after intravenous (i.v.) injection to form a double-caged PN (DCPN). […] To render the DCPN with a targeting function, an iRGD tumor-penetrating peptide was co-administered with the DCPN into subcutaneous xenograft nude mice of breast cancer by IV administration. The tumor size in each mouse was grown to about 150 mm^3 to facilitate DCPN delivery. Additionally, the DCPN and one of the control groups (G2NH2 coated with a PEG corona) were pre-attached with as NIR dye, cy5.5, for real-time tracking alter administration. […] Consecutive tissue sections front four groups, including the control, cisplatin, G2NH2, and DCPN groups were examined histologically by hematoxylin and eosin (H&E) staining at the end point, and the slides were evaluated by an independent pathologist (FIG. 16). […]

[5] = test system: subcutaneous xenograft of breast cancer; assay: Tumor suppression after IV injection with iRGD co-administration; format: in vivo, Balb/c nude mice; conditions: IV 16.6 μmol/kg at 7-day intervals, 4 weeks, iRGD co-administered, vs PBS and G2NH2
Method: as §1
The therapeutic efficacy of CPN using subcutaneous breast cancer xenograft in mice was evaluated by intratumoral (IT) injection. […] Consecutive tissue sections front four groups, including the control, cisplatin, G2NH2, and DCPN groups were examined histologically by hematoxylin and eosin (H&E) staining at the end point, and the slides were evaluated by an independent pathologist (FIG. 16). […]

For `N.N.[Cl][Pt][Cl]` [cisplatin], the “TUNEL staining (broken DNA strands)” value [1] was “TUNEL-positive staining”, the ROS production (MDA-MB-231 cell line) was “no significant ROS increase or decrease” and the tumor suppression [2] was “notably efficacious in tumor suppression”. The IC50 (MDA-MB-231) was 7 µg/mL, the “apoptosis by active caspase-3 immunostaining” value [3] was “can indeed cause apoptosis” and the “maximal tolerated dose (MTD)” value [4] was 16.6 µmol/kg. For the same molecule, the “tumor growth / tumor volume” value [5] was “can indeed cause tumors to shrink”.
For `N.N.O=C([O-])C1(C(=O)[O-])CCC1.[Pt+2]` [carboplatin], the IC50 (MDA-MB-231) was 35 µg/mL.
